In patent US9670212B2, “Inhibitors of PI3K-delta and methods of their use and manufacture” (Exelixis, Inc., priority 2010, dated 2017):

target: PI3K delta (Homo sapiens (Human), UniProt O00329); assay: Luciferase-coupled chemiluminescence kinase assay (KinaseGlo, ATP consumption); assay type: biochemical
How it was run: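 Kinase, compound and ATP (at or below KM) reacted 2 h at ambient temperature; remaining ATP detected by KinaseGlo luciferase chemiluminescence as percent ATP consumed. 10-point dose-response, curves fitted to give IC50.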

PI3K delta, sequence (O00329 whole entry): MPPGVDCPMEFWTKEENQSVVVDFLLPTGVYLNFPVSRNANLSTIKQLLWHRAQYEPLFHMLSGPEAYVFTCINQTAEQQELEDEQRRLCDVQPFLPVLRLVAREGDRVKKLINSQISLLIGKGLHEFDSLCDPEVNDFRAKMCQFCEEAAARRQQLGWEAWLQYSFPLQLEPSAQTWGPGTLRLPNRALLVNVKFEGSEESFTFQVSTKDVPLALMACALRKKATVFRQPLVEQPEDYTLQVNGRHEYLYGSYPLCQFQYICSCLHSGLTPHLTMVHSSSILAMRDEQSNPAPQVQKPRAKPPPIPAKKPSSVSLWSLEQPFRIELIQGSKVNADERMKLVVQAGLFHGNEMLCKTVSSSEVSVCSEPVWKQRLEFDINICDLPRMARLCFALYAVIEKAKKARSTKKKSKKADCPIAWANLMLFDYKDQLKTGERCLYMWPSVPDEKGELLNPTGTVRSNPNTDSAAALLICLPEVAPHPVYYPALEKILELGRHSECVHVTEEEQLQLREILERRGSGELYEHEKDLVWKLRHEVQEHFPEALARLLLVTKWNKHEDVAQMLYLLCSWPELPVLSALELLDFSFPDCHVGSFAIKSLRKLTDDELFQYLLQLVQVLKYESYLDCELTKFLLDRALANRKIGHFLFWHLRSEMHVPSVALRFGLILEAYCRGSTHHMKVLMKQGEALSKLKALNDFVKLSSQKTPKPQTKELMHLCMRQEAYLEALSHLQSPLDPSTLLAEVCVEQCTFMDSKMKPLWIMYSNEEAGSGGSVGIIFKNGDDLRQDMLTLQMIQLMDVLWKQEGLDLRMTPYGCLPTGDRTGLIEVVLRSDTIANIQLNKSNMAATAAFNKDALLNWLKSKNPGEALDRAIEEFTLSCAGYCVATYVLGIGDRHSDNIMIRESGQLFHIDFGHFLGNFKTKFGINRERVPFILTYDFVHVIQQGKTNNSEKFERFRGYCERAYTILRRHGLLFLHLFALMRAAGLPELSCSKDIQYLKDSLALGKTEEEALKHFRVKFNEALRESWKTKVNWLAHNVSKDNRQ
PI3K delta, sequence (P27986 whole entry partner): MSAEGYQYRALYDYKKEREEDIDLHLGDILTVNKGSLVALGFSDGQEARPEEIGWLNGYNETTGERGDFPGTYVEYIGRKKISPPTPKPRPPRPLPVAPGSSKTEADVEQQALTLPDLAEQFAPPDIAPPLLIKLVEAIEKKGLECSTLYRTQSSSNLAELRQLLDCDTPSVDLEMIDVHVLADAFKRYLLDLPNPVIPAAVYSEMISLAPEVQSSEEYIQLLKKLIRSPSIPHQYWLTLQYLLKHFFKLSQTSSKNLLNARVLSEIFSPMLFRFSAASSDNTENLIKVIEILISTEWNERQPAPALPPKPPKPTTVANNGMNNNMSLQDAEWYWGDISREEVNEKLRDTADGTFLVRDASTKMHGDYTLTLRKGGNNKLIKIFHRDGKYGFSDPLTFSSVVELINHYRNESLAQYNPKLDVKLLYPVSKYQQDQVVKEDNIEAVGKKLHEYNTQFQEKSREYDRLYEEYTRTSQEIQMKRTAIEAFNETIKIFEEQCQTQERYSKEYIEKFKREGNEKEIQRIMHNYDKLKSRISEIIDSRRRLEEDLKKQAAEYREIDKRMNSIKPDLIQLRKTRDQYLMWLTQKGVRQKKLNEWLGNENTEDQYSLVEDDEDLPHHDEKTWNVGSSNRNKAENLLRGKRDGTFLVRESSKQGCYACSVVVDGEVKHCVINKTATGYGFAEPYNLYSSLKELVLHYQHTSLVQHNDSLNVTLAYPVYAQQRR

Row | SMILES | IC50
1 | Cc1ccccc1-c1cc2ccccc2nc1CNC(=O)c1ncc(Cl)nc1N [Compound 107, 3-amino-5-chloro-N-{[3-(2-methylphenyl)quinolin-2-yl]methyl}pyrazine-2-carboxamide] | 500 to 1500 nM
2 | Cc1ccccc1-c1cc2ccccc2nc1CNC(=O)c1cncnc1N [Compound 108, 4-amino-N-{[3-(2-methylphenyl)quinolin-2-yl]methyl}pyrimidine-5-carboxamide] | 500 to 1500 nM
3 | Cc1cccc2cc(CNC(=O)c3nccnc3N)c(N(C)CCN(C)C(=O)CN3CCCC3)nc12 [Compound 109, 3-amino-N-{[8-methyl-2-(methyl{2-[methyl(pyrrolidin-1-ylacetyl)amino]ethyl}amino)quinolin-3-yl]methyl}pyrazine-2-carboxamide] | 50 to 250 nM
4 | Cc1cccc2cc(CNC(=O)c3nccnc3N)c(N(C)CCN(C)C(=O)c3cncn3C)nc12 [Compound 110, 3-amino-N-({8-methyl-2-[methyl(2-{methyl[(1-methyl-1H-imidazol-5-yl)carbonyl]amino}ethyl)amino]quinolin-3-yl}methyl)pyrazine-2-carboxamide] | 50 to 250 nM
5 | Cc1cccc2cc(CNC(=O)c3nccnc3N)c(-n3ccnc3)nc12 [Compound 111, 3-amino-N-{[2-(1H-imidazol-1-yl)-8-methylquinolin-3-yl]methyl}pyrazine-2-carboxamide] | 250 to 500 nM
6 | Cc1cccc2cc(CNC(=O)c3nccnc3N)c(-n3cnc4ccccc43)nc12 [Compound 112, 3-amino-N-{[2-(1H-benzimidazol-1-yl)-8-methylquinolin-3-yl]methyl}pyrazine-2-carboxamide] | 500 to 1500 nM
7 | Cc1cccc2cc(CNC(=O)c3nccnc3N)c(N(C)CCN(C)C(=O)[C@@H]3CCCN3C)nc12 [Compound 113, 3-amino-N-{[8-methyl-2-(methyl{2-[methyl(1-methyl-L-prolyl)amino]ethyl}amino)quinolin-3-yl]methyl}pyrazine-2-carboxamide] | 50 to 250 nM
8 | Cc1cccc2cc(CNC(=O)c3nccnc3N)c(N(C)CCN(C)C(=O)CN(C)C)nc12 [Compound 114, 3-amino-N-({2-[{2-[(N,N-dimethylglycyl)(methyl)amino]ethyl}(methyl)amino]-8-methylquinolin-3-yl}methyl)pyrazine-2-carboxamide] | 50 to 250 nM
9 | Cc1cccc2cc(CNC(=O)c3nccnc3N)c(N(C)CCN(C)C(=O)CN)nc12 [Compound 115, 3-amino-N-({2-[{2-[glycyl(methyl)amino]ethyl}(methyl)amino]-8-methylquinolin-3-yl}methyl)pyrazine-2-carboxamide] | 50 to 250 nM
10 | CNCC(=O)N(C)CCN(C)c1nc2c(C)cccc2cc1CNC(=O)c1nccnc1N [Compound 116, 3-amino-N-{[8-methyl-2-(methyl{2-[methyl(N-methylglycyl)amino]ethyl}amino)quinolin-3-yl]methyl}pyrazine-2-carboxamide] | 50 to 250 nM
11 | Cc1ccccc1-c1cc2ccccc2nc1C(C)n1nc(I)c2c(N)ncnc21 (stereo not drawn) [Compound 117, 3-iodo-1-{1-[3-(2-methylphenyl)quinolin-2-yl]ethyl}-1H-pyrazolo[3,4-d]pyrimidin-4-amine] | < 50 nM
12 | Cc1ccccc1-c1cc2c(C)cccc2nc1CNC(=O)c1nccnc1N [Compound 118, 3-amino-N-{[5-methyl-3-(2-methylphenyl)quinolin-2-yl]methyl}pyrazine-2-carboxamide] | 250 to 500 nM
13 | Cc1ccccc1-c1cc2c(C)cccc2nc1Cn1nc(I)c2c(N)ncnc21 [Compound 119, 3-iodo-1-{[5-methyl-3-(2-methylphenyl)quinolin-2-yl]methyl}-1H-pyrazolo[3,4-d]pyrimidin-4-amine] | < 50 nM
14 | Cc1ccccc1-c1cc2ccccc2cc1Cn1cnc2c(N)ncnc21 [Compound 120, 9-{[3-(2-methylphenyl)naphthalen-2-yl]methyl}-9H-purin-6-amine] | 500 to 1500 nM
15 | Cc1cccc2cc(CNC(=O)c3nccnc3N)c(N(C)CCO)nc12 [Compound 121, 3-amino-N-({2-[(2-hydroxyethyl)(methyl)amino]-8-methylquinolin-3-yl}methyl)pyrazine-2-carboxamide] | 50 to 250 nM
16 | CNCCOc1nc2c(C)cccc2cc1CNC(=O)c1nccnc1N [Compound 122, 3-amino-N-[(8-methyl-2-{[2-(methylamino)ethyl]oxy}quinolin-3-yl)methyl]pyrazine-2-carboxamide] | 500 to 1500 nM
17 | CC(=O)N1CCN(c2nc3c(C)cccc3cc2CNC(=O)c2nccnc2N)CC1 [Compound 124, N-{[2-(4-acetylpiperazin-1-yl)-8-methylquinolin-3-yl]methyl}-3-aminopyrazine-2-carboxamide] | 250 to 500 nM
18 | Cc1cccc2cc(CNC(=O)c3nccnc3N)c(NCCO)nc12 [Compound 125, 3-amino-N-({2-[(2-hydroxyethyl)amino]-8-methylquinoin-3-yl}methyl)pyrazine-2-carboxamide] | 500 to 1500 nM
19 | Cc1cccc2cc(CNC(=O)c3nccnc3N)c(N3CCC(N(C)C)CC3)nc12 [Compound 127, 3-amino-N-({2-[4-(dimethylamino)piperidin-1-yl]-8-methylquinolin-3-yl}methyl)pyrazine-2-carboxamide] | 500 to 1500 nM
20 | Cc1cccc2cc(CNC(=O)c3nccnc3N)c(N(C)CCN(C)C)nc12 [Compound 128, 3-amino-N-[(2-{[2-(dimethylamino)ethyl](methyl)amino}-8-methylquinolin-3-yl)methyl]pyrazine-2-carboxamide] | < 50 nM
21 | Cc1cccc2cc(CNC(=O)c3nccnc3N)c(NCCN(C)C)nc12 [Compound 129, 3-amino-N-[(2-{[2-(dimethylamino)ethyl]amino}-8-methylquinolin-3-yl)methyl]pyrazine-2-carboxamide] | 500 to 1500 nM
22 | CNCCN(C)c1nc2c(C)cccc2cc1CNC(=O)c1nccnc1N [Compound 130, 3-amino-N-[(8-methyl-2-{methyl[2-(methylamino)ethyl]amino}quinolin-3-yl)methyl]pyrazine-2-carboxamide] | 250 to 500 nM
23 | Cc1cccc2cc(CNC(=O)c3nccnc3N)c(N3CCNCC3)nc12 [Compound 131, 3-amino-N-[(8-methyl-2-piperazin-1-ylquinolin-3-yl)methyl]pyrazine-2-carboxamide] | 500 to 1500 nM
24 | Cc1ccccc1-c1cc2ccccc2nc1CNc1cncnc1N [Compound 132, N-5-{[3-(2-methylphenyl)quinolin-2-yl]methyl}pyrimidin-4,5-diamine] | 500 to 1500 nM
25 | CNCCCN(C)c1nc2c(C)cccc2cc1CNC(=O)c1nccnc1N [Compound 133, 3-amino-N-[(8-methyl-2-{methyl[3-(methylamino)propyl]amino}quinolin-3-yl)methyl]pyrazine-2-carboxamide] | 50 to 250 nM
26 | Cc1ccccc1-c1nc2c(C)cccc2cc1Cn1nc(I)c2c(N)ncnc21 [Compound 134, 3-iodo-1-{[8-methyl-2-(2-methylphenyl)quinolin-3-yl]methyl}-1H-pyrazolo[3,4-d]pyrimidin-4-amine] | < 50 nM
27 | Cc1cccc2cc(CNC(=O)c3nccnc3N)c(N(C)CCCN(C)C(=O)CN(C)C)nc12 [Compound 136, 3-amino-N-({2-[{3-[(N,N-dimethylglycyl)(methyl)amino]propyl}(methyl)amino]-8-methylquinolin-3-yl}methyl)pyrazine-2-carboxamide] | < 50 nM
